Experimental data as given in patent US20260337184A1, “NOVEL SUBSTITUTED 2-CARBONYL-BENZOTHIOPHENE-6-CARBOXYLIC ACID DERIVATIVES, PROCESSES FOR THEIR PREPARATION AND THERAPEUTIC USES THEREOF” (SANOFI, priority 2022, published 2026).

Molecular target: T1, estrogen receptor (ERα) (Homo sapiens, UniProt P03372)
T1 construct: endogenous in cells; host or cells: MCF7 cells (ATCC)
T1 sequence (P03372 1-595): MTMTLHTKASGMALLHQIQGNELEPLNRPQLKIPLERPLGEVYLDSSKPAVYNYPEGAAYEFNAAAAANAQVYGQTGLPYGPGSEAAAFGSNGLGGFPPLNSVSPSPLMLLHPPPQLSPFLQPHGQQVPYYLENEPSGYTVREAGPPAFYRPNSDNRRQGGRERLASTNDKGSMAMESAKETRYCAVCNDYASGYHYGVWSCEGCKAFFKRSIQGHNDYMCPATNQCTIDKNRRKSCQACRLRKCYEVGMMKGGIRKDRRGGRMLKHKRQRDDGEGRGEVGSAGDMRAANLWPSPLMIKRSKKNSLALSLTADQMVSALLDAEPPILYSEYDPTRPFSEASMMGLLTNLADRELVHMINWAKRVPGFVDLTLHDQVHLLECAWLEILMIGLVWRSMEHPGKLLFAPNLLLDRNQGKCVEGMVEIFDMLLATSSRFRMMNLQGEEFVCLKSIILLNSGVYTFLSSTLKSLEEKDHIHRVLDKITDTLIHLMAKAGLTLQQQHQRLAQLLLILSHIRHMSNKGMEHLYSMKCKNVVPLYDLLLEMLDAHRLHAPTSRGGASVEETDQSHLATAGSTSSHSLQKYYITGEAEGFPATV
Assay: Estrogen receptor degradation activity (ERα in cell western assay, MCF7 breast cancer cells)
Type: cell-based
Conditions: for percent ER degradation at 0.3 µM: 4 hours, relative to fulvestrant (0.1 μM) and DMSO; for DC50: concentration which degrades 50% of the estrogen receptor, 4 hours post compound addition, read-out: Degradation IC50
Description: Test: Estrogen Receptor Degradation Activity
Said test involves measuring the in vitro degradation activity of the compounds of the Table 1a.
The measurements of the degradation activities were made using a breast cancer cell ERα in cell western assay as described hereunder.
MCF7 cells (ATCC) were seeded in 384 wells microplate (collagen coated) at a concentration of 10000 cells/30 μL per well in red phenol free MEM alpha medium (invitrogen) containing 5% charcoal dextran striped FBS. The following day, 9 points serial 1:5 dilution of each compound was added to the cells in 2.5 μL at final concentrations ranging from 0.3-0.0000018 μM (in table 2), or 0.1 μM for fulvestrant (using as positive control). At 4 hours post compound addition the cells were fixed by adding 25 μL of formalin (final concentration 5% formalin containing 0.1% triton) for 10 minutes at room temperature and then washed twice with PBS. Then, 50 μL of LI-COR blocking buffer containing 0.1% Triton was added to plate for 30 minutes at room temperature. LI-COR blocking buffer was removed and cells were incubated overnight at cold room with 50 μL anti-ER rabbit monoclonal antibody (Thermo scientific MA1-39540) diluted at 1:1000 in LI-COR blocking buffer containing 0.1% tween-20. Wells which were treated with blocking buffer but no antibody were used as background control. Wells were washed twice with PBS (0.1% tween-20) and incubated at 37° C. for 60 minutes in LI-COR (0.1% tween-20) containing goat anti-rabbit antibody Alexa 488 (1:1000) and Syto-64 a DNA dye (2 μM final concentration). Cells were then washed 3 times in PBS and scanned in ACUMEN explorer (TTP-Labtech). Integrated intensities in the green fluorescence and red fluorescence were measured to determine the levels of ERα and DNA respectively.
The degradation activity with respect to estrogen receptors in this test is given by the concentration which degrades 50% of the estrogen receptor (or IC50) in nM.
The % of ERα levels decrease were determined as follows: % inhibition=100*(1−(sample−fulvestrant: DMSO−fulvestrant)).

percent ER degradation at 0.3 µM | DC50 | Compound
85% | 3 nM | Cc1cc(F)cc(C)c1C(=O)c1sc2cc(C(=O)O)ccc2c1Oc1ccc(CC2CN(CCCF)C2)cc1 [Compound 3, 2-(4-fluoro-2,6-dimethylbenzoyl)-3-(4-((1-(3-fluoropropyl)azetidin-3-yl)methyl)phenoxy)benzo[b]thiophene-6-carboxylic acid]
84% | 3 nM | Cc1cc(F)cc(C)c1C(=O)c1sc2cc(C(=O)O)ccc2c1Oc1ccc(N[C@H]2CCN(CCCF)C2)cc1 [Compound 6, (S)-2-(4-fluoro-2,6-dimethylbenzoyl)-3-(4-((1-(3-fluoropropyl)pyrrolidin-3-yl)amino)phenoxy)benzo[b]thiophene-6-carboxylic acid]

The remaining lines, values behind:

Compound | percent ER degradation at 0.3 µM | DC50
Cc1cc(F)cc(C)c1C(=O)c1sc2cc(C(=O)O)ccc2c1Oc1ccc(NC2CN(CCCF)C2)cc1 [Compound 1, 2-(4-fluoro-2,6-dimethylbenzoyl)-3-(4-((1-(3-fluoropropyl)azetidin-3-yl)amino)phenoxy)benzo[b]thiophene-6-carboxylic acid] | 91% | 5 nM
Cc1cc(F)cc(C)c1C(=O)c1sc2cc(C(=O)O)ccc2c1Oc1ccc(OC2CN(CCCF)C2)cc1 [Compound 2, 2-(4-fluoro-2,6-dimethylbenzoyl)-3-(4-((1-(3-fluoropropyl)azetidin-3-yl)oxy)phenoxy)benzo[b]thiophene-6-carboxylic acid] | 92% | 5 nM
Cc1cc(F)cc(C)c1C(=O)c1sc2cc(C(=O)O)ccc2c1Oc1ccc(C=C2CN(CCCF)C2)cc1 [Compound 4, 2-(4-fluoro-2,6-dimethylbenzoyl)-3-(4-((1-(3-fluoropropyl)azetidin-3-ylidene)methyl)phenoxy)benzo[b]thiophene-6-carboxylic acid] | 98% | 0.3 nM
Cc1cc(F)cc(C)c1C(=O)c1sc2cc(C(=O)O)ccc2c1Oc1ccc(O[C@H]2CCN(CCCF)C2)cc1 [Compound 5, (S)-2-(4-fluoro-2,6-dimethylbenzoyl)-3-(4-((1-(3-fluoropropyl)pyrrolidin-3-yl)oxy)phenoxy)benzo[b]thiophene-6-carboxylic acid] | 91% | 12 nM
